Experiment: xn = mol fraction of the nth substance listed
Conditions: 92.3 kPa, Liquid; for viscosity: Concentric cylinders viscometry; for speed of sound: Frequency=3 MHz, Single path-length method; for mass density: Vibrating tube method

OCCOCCO [diethylene glycol] + O
Conditions | mass density, 293.15 K [kg/m3] | mass density, 298.15 K [kg/m3] | speed of sound, 293.15 K [m/s] | speed of sound, 298.15 K [m/s] | viscosity, 293.15 K [mPa·s] | viscosity, 298.15 K [mPa·s]
x1 = 0.0097 | 1006.17 | 1004.88 | 1511.2 | 1523 | – | –
x1 = 0.0201 | 1013.77 | 1012.33 | 1539.6 | 1549.1 | – | –
x1 = 0.0297 | 1020.4 | 1018.8 | 1563.6 | 1571.1 | – | –
x1 = 0.0397 | 1026.98 | 1025.23 | 1586.2 | 1591.7 | – | –
x1 = 0.049 | 1032.59 | 1030.67 | – | – | 2.119 | 1.717
x1 = 0.0502 | 1033.24 | 1031.33 | 1607.7 | 1611.3 | – | –
x1 = 0.0591 | 1038.24 | 1036.19 | 1624 | 1626.1 | – | –
x1 = 0.0703 | 1044.16 | 1041.95 | 1642.5 | 1643 | – | –
x1 = 0.0796 | 1048.67 | 1046.34 | 1655.5 | 1654.7 | – | –
x1 = 0.0897 | 1053.15 | 1050.7 | 1667.9 | 1665.9 | – | –
x1 = 0.0992 | 1057.14 | 1054.62 | – | – | 3.602 | 2.877
x1 = 0.1004 | 1057.71 | 1055.14 | 1679.7 | 1676.5 | – | –
x1 = 0.149 | 1074.04 | 1071.09 | – | – | 5.458 | 4.314
x1 = 0.1507 | 1074.47 | 1071.48 | 1713 | 1705.9 | – | –
x1 = 0.1996 | 1085.68 | 1082.45 | 1723.9 | 1714.7 | – | –
x1 = 0.1998 | 1085.89 | 1082.66 | – | – | 7.66 | 6.022
x1 = 0.2467 | 1093.59 | 1090.21 | 1723 | 1712.6 | – | –
x1 = 0.249 | 1093.81 | 1090.4 | – | – | 10.04 | 7.847
x1 = 0.2943 | 1098.86 | 1095.38 | 1716.6 | 1705.5 | – | –
x1 = 0.2987 | 1099.44 | 1095.93 | – | – | 12.55 | 9.772
x1 = 0.3501 | 1103.6 | 1100.05 | – | – | 15.18 | 11.79
x1 = 0.3511 | 1103.73 | 1100.19 | 1705.1 | 1693.5 | – | –
x1 = 0.3995 | 1106.65 | 1103.05 | 1694 | 1682.2 | – | –
x1 = 0.4007 | 1106.63 | 1103.05 | – | – | 17.72 | 13.74
x1 = 0.4504 | 1108.9 | 1105.32 | – | – | 20.13 | 15.59
x1 = 0.4527 | 1109.08 | 1105.5 | 1681.7 | 1669.8 | – | –
x1 = 0.4973 | 1110.6 | 1107.02 | – | – | 22.3 | 17.24
x1 = 0.5008 | 1110.76 | 1107.17 | 1670.7 | 1658.7 | – | –
x1 = 0.5449 | 1111.95 | 1108.36 | 1661.5 | 1649.4 | – | –
x1 = 0.553 | 1112.18 | 1108.61 | – | – | 24.68 | 19.07
x1 = 0.5834 | 1112.81 | 1109.23 | 1653.4 | 1641.4 | – | –
x1 = 0.5938 | 1113.09 | 1109.52 | – | – | 26.23 | 20.23
x1 = 0.6482 | 1113.95 | 1110.37 | 1640.7 | 1628.7 | – | –
x1 = 0.6514 | 1114.07 | 1110.49 | – | – | 28.3 | 21.86
x1 = 0.6864 | 1114.52 | 1110.94 | – | – | 29.45 | 22.7
x1 = 0.6982 | 1114.6 | 1111.02 | 1632.2 | 1620.2 | – | –
x1 = 0.7444 | 1115.11 | 1111.54 | 1624.4 | 1612.5 | – | –
x1 = 0.7556 | 1115.19 | 1111.61 | – | – | 31.37 | 24.17
x1 = 0.7962 | 1115.57 | 1112.01 | 1616.7 | 1604.8 | – | –
x1 = 0.7999 | 1115.52 | 1111.95 | – | – | 32.41 | 24.94
x1 = 0.8401 | 1115.89 | 1112.33 | 1610.4 | 1598.5 | – | –
x1 = 0.8525 | 1115.89 | 1112.33 | – | – | 33.47 | 25.8
x1 = 0.8947 | 1116.23 | 1112.67 | 1603.3 | 1591.5 | – | –
x1 = 0.9002 | 1116.23 | 1112.68 | – | – | 34.4 | 26.49
x1 = 0.9092 | 1116.32 | 1112.76 | 1601.5 | 1589.6 | – | –
x1 = 0.919 | 1116.37 | 1112.81 | 1600.2 | 1588.4 | – | –
x1 = 0.9303 | 1116.39 | 1112.85 | 1599.1 | 1587.2 | – | –
x1 = 0.9393 | 1116.4 | 1112.85 | 1598 | 1586.2 | – | –
x1 = 0.9473 | 1116.5 | 1112.94 | 1597.2 | 1585.3 | – | –
x1 = 0.9554 | 1116.57 | 1113.02 | – | – | 35.26 | 27.15
x1 = 0.9566 | 1116.55 | 1112.99 | 1596 | 1584.1 | – | –
x1 = 0.9694 | 1116.6 | 1113.04 | 1594.6 | 1582.7 | – | –
x1 = 0.9801 | 1116.65 | 1113.09 | 1593.4 | 1581.5 | – | –
x1 = 0.9915 | 1116.69 | 1113.13 | 1592.1 | 1580.3 | – | –
x1 = 1 | 1116.73 | 1113.17 | 1591 | 1579.1 | 35.89 | 27.67
